Data: patent publication US7629468B2 (Janssen Pharmaceutica NV, priority 2003, dated 2009)

Tests used:
[1] = test system: rats with a Bennett ligation; test: Cold allodynia test in rats with a Bennett ligation (cold plate testing); assay type: in vivo, rat; settings: male SD rats, IP, dose of 2.5 mg/kg bodyweight, retested after 60 minutes, cold plate 0.0 °C
Method: Cold Allodynia Test in Rats with a Bennett Ligation
Male SD rats, weighing 240-280 g at the time of surgery were used.
For surgery, the animals were anaesthetised with Thalamonal (1 ml; subcutane) and sodium pentobarbital (40 mg/kg; intraperitoneal (IP)). The common sciatic nerve of the left hindpaw was exposed at the level of the middle of the thigh by blunt dissection through the biceps femoris. Proximal to the sciatic's trifurcation, about 7 mm of nerve was freed and four loose ligatures with 4.0 chromic gut were placed around the sciatic nerve. Great care was taken to tie the ligatures such that the diameter of the nerve was barely constricted. After surgery, the animals received 1.25 mg/kg naloxone IP.
Cold plate testing was performed on a metal plate of 30×30 cm with transparent acrylic walls around it. The cold plate was cooled to 0.0 (±0.5)° C. using a Julabo F25 cooler. For testing, the animal was placed on the cold plate and the duration of lifting of both the left and the right hindpaw was measured during 5 minutes. The difference in lifting time between the ligated and non-ligated paw was calculated.
At least one week after the operation, animals were placed on the cold plate test and a pre-drug measurement was taken. […] The results obtained during the post drug test were expressed as a percentage of those of the predrug test. […]

[2] = target: T1, cloned rat mGluR1 receptor (Rattus norvegicus, UniProt P23385); test: Signal transduction at the cloned rat mGluR1 receptor in CHO cells (glutamate-induced intracellular Ca2+ rise, FLIPR); assay type: cell-based
T1 construct: expressed in transfected cells; host or cells: CHO cells
T1 sequence (P23385 19-1199): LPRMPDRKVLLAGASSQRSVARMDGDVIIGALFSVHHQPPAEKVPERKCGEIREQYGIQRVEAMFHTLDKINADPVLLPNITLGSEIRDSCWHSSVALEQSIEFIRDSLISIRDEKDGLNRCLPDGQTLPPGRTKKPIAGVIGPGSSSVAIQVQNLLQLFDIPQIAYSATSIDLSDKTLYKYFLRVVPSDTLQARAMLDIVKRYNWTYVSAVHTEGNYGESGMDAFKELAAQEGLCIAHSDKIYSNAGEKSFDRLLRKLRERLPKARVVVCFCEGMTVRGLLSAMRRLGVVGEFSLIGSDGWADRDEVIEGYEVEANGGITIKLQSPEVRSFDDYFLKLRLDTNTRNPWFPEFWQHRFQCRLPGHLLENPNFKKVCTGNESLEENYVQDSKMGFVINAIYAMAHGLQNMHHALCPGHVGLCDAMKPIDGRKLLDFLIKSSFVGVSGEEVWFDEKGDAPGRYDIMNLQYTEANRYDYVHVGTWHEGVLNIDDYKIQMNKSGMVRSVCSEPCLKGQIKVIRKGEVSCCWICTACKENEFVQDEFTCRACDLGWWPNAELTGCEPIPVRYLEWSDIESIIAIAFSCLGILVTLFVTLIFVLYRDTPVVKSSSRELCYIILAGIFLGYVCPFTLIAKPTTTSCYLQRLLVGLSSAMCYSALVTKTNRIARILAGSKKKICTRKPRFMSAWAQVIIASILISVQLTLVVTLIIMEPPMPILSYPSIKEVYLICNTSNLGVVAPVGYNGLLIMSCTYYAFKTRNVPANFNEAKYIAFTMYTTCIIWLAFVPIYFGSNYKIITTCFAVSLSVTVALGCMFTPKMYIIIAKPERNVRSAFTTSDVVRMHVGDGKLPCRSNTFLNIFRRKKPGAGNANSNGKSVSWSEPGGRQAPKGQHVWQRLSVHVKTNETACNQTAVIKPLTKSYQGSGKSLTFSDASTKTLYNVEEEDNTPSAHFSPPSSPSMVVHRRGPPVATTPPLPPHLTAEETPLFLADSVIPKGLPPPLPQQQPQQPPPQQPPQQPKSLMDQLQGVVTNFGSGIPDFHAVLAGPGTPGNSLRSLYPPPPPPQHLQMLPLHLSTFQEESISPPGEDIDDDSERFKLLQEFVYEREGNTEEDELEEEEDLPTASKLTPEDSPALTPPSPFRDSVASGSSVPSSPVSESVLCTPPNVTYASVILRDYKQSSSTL
Method: Pharmacological Example Signal Transduction at the Cloned Rat mGluR1 Receptor in CHO Cells
CHO cells expressing the mGluR1 receptor were plated in precoated black 96-well plates. […] The cells were loaded with Fluo-3 AM, plates were incubated for 1 hour at room temperature in the dark, cells were washed and the present compounds were added onto the cells for 20 minutes. […] Relative fluorescence units were recorded and average data graphs of quadruple wells were obtained.

Row | SMILES | melting point [°C] | IC50 [2] [nM] | other results
1 | CCc1cc2cc(C(=O)C3CCC(OC)CC3)ccc2nc1C#CCO (centres unmarked) [Compound 18] | 113 |  | 
2 | CCc1cc2cc(C(=O)C3CCC(OC)CC3)ccc2nc1I (centres unmarked) [Compound 21] | 110 |  | 
3 | CCc1cc2cc(C(=O)C3CCC(OC)CC3)ccc2nc1C#N (centres unmarked) [Compound 22] | 138 |  | 
4 | CCc1cc2cc(C(=O)C3CCC(OC)CC3)ccc2nc1C (centres unmarked) [Compound 27] |  |  | all or none criterion on difference in lifting time between ligated and non-ligated paw, post-drug as percentage of pre-drug [1]: antagonism
5 | CCc1cc2cc(C(=O)Cc3ccsc3)ccc2nc1C [Compound 299] |  | 23.4 | 
6 | CCc1cc2cc(C(=O)[C@H]3CC[C@@H](OC)CC3)ccc2nc1COC(C)=O [Compound 348] |  | 89.1 | 
7 | CO[C@H]1CC[C@@H](C(=O)c2ccc3nc4c(cc3c2)CCCCC4)CC1 [Compound 426] |  | 77.6 | 
8 | O=C(Cc1ccsc1)c1ccc2nc3c(cc2c1)CCCS3 [Compound 464] |  | 26.9 | 
